From ChEMBL document CHEMBL3045381, “Antiproliferative activity of pentadeca-(8E, 13Z) dien-11-yn-2-one and (E)-1,8-pentadecadiene from Echinacea pallida (Nutt.) Nutt. roots” (Med Chem Res, 2013)
The source made the active and inactive calls. No cut-off for these calls is given here.

Columns and labels:
Type in all cases: functional, cell-based
C6 [1] = test: Antiproliferative activity against Rattus norvegicus (rat) C6 cells at 5 to 100 ug/ml after 24 hr by BRdU incorporation assay
HeLa [2] = test: Antiproliferative activity against Homo sapiens (human) HeLa cells at 5 to 100 ug/ml after 24 hr by BRdU incorporation assay
HeLa [3] = test: Antiproliferative activity against Homo sapiens (human) HeLa cells at 5 to 40 ug/ml after 24 hr by BRdU incorporation assay
C6 [4] = test: Antiproliferative activity against Rattus norvegicus (rat) C6 cells at 5 to 75 ug/ml after 24 hr by BRdU incorporation assay

Structure (SMILES)	Activity (C6 [1])	Activity (HeLa [2])	Activity (HeLa [3])	Activity (C6 [4])
C=CCCCCC/C=C/CCCCCC	inactive	inactive		
C/C=C\C#CC/C=C\CCCCCC(C)=O			Active	Active
